Source: PMC7235792, “Effect of the Most Relevant CYP3A4 and CYP3A5 Polymorphisms on the Pharmacokinetic Parameters of 10 CYP3A Substrates” (Biomedicines, 2020)
Each block holds one compound with its values, some of them ahead of it.

Legend:
[1] = CYP3A5 *1/*1 subjects compared to *1/*3 and *3/*3; population PK model; cited from earlier work
[2] = human, in vivo

SMILES: OCCOCCN1CCN(C2=Nc3ccccc3Sc3ccccc32)CC1 [quetiapine]
increased Cl [1]: 29%

AUC in CYP3A4 mutated alleles carriers (tendency) [2]: lower AUC
Cl in CYP3A4 mutated alleles carriers (tendency) [2]: higher Cl
SMILES: CC(C)C(=O)Oc1ccc(CO)cc1[C@H](CCN(C(C)C)C(C)C)c1ccccc1 [fesoterodine]

association of CYP3A polymorphisms with PK parameters [2]: no significant association
SMILES: COC(c1ccccc1)(c1ccccc1)[C@H](Oc1nc(C)cc(C)n1)C(=O)O [ambrisentan]
influence of CYP3A4 or CYP3A5 polymorphisms on elimination [2]: it does not appear that CYP3A4 or CYP3A5 polymorphisms influence its elimination

SMILES: Cc1cc2c(s1)Nc1ccccc1N=C2N1CCN(C)CC1 [olanzapine]
association of CYP3A polymorphisms with PK parameters [2]: no significant association

SMILES: O=C1CCc2ccc(OCCCCN3CCN(c4cccc(Cl)c4Cl)CC3)cc2N1 [aripiprazole]
association of CYP3A polymorphisms with PK parameters [2]: no significant association

AUC in CYP3A5 PM [2]: higher AUC
SMILES: CCOC(=O)C1=C(COCCN)NC(C)=C(C(=O)OC)C1c1ccccc1Cl (centres unmarked) [amlodipine]
